Measurements: patent publication US9375000B2, “Pesticidal arylpyrrolidines” (Bayer Intellectual Property GmbH, priority 2011, dated 2016)

Columns and labels:
Assay type in all cases: in vivo
[1] = tested on: Larvae of Spodoptera litura; experiment: Larvae of Spodoptera litura, method using artificial feeds; conditions: artificial feed, after 7 days
Procedure: (§1) Unless not mentioned otherwise, the test solutions were prepared as follows:
(§2) Solvent: 3 parts by weight Dimethylformamide
(§3) Emulsifier: 1 part by weight Polyoxyethylene alkyl phenyl ether
(§4) In order to make an appropriate formulation of an active compound, 1 part by weight of the active compound is mixed with the above mentioned amount of solvent and emulsifier and the mixture is diluted with water to a prescribed concentration. Ammonium salt or ammonium salt and penetration enhancer in a dosage of 1000 ppm are added to the desired concentration if necessary.
[A Method Using Artificial Feeds (Trade Name: Insecta LFM, Manufactured by Nosan Corporation)]
Powdery artificial feeds (2.3 g) were added to a plastic cup (diameter: 7.5 cm, height: 4 cm) to achieve a certain thickness. Water-diluted liquid (5 ml) of the active compound prepared above having predetermined concentration was evenly poured thereto and allowed to stand until the feeds were solidified. Five of the 3rd-instar larvae of Spodoptera litura were released in respective cups, and covered. The cups were put in a temperature controlled room at 25° C. and humidity of 50 to 60%, and the number of dead larvae after 7 days was determined to calculate the pesticidal ratio. 100% pesticidal ratio means death of all the larvae, while 0% pesticidal ratio means no dead larvae.

[2] = tested on: Two-Spotted Spider Mite (Tetranychus urticae); experiment: Two-spotted spider mite (Tetranychus urticae) spray test on kidney bean; conditions: after 7 days
Procedure: as §1, §2, §3, §4
50 to 100 adult mites of Tetranychus urticae were inoculated to leaves of kidney bean at two-leaf stage planted in a pot of 6 cm in diameter. After one day, test solution at the appropriate concentration was sprayed thereon in a sufficient amount using a spray gun. After the spraying, the plant pot was placed inside a greenhouse, and after 7 days, the acaricidal activity was calculated. An acaricidal activity of 100% means that all mites were killed, whereas an acaricidal activity of 0% means that no mite was killed.

[3] = tested on: Cucurbit Leaf Beetle (Aulacophora femoralis); experiment: Cucurbit leaf beetle (Aulacophora femoralis) cucumber leaf dip test; conditions: after 7 days; for pest or weed control at 20 ppm: Aulacophora, foliar, 168 h, read-out: insecticidal activity
Procedure: as §1, §2, §3, §4
Leaves of cucumber were immersed in the test solution at the appropriate concentration, and the leaves were dried in air. The leaves were then put in a plastic cup containing sterilized black soil and five Aulacophora femoralis at second instar larvae were released in the cup. The cups were placed in a temperature-controlled chamber at 25° C. After 7 days, the number of dead larvae was counted, and thus the insecticidal activity was calculated. An insecticidal activity of 100% means that all larvae were killed, whereas an insecticidal activity of 0% means that no larva was killed.

[4] = active compound concentration 100 ppm
[5] = active compound concentration 4 ppm
[6] = active compound concentration 20 ppm

CC(C)(C)OC(=O)N1CCCC1C(=O)NCc1cnc(N2CCC(c3cc(Cl)cc(Cl)c3)(C(F)(F)F)C2O)nc1C(F)(F)F (stereo not shown) [A4-203]
insecticidal activity (pesticidal ratio) [1, 4]: 80%

Cc1nc(N2CCC(c3cc(C(F)(F)F)cc(C(F)(F)F)c3)(C(F)(F)F)C2O)ccc1CNC(=O)CS(C)(=O)=O (stereo not shown) [A3-132]
insecticidal activity (pesticidal ratio) [1, 5]: 100%
insecticidal activity (pesticidal ratio) [1, 6]: 100%

CCC(=O)NCc1ccc(N2CCC(c3cc(F)cc(Cl)c3)(C(F)(F)F)C2O)cc1C(F)(F)F (stereo not shown) [A1-239]
acaricidal activity [2, 6]: 100%

CCC(=O)NCc1ccc(N2CCC(c3cc(Cl)cc(Cl)c3)(C(F)(F)F)C2O)cc1Cl (stereo not shown) [A1-2]
insecticidal activity [3, 6]: 100%
acaricidal activity [2, 6]: 100%

CCC(=O)NCc1ccc(N2CCC(c3cc(Br)cc(Br)c3)(C(F)(F)F)C2O)nc1C(F)(F)F (mixture of isomers) [A3-178]
insecticidal activity [3, 6]: 100%
insecticidal activity (pesticidal ratio) [1, 6]: 100%

CC(=O)NCc1ccc(N2CCC(c3cc(C(F)(F)F)cc(C(F)(F)F)c3)(C(F)(F)F)C2O)nc1Br (stereo not shown) [A3-155]
insecticidal activity [3, 5]: 100%
insecticidal activity [3, 6]: 100%
insecticidal activity (pesticidal ratio) [1, 5]: 100%
insecticidal activity (pesticidal ratio) [1, 6]: 100%

C=C(C)N(Cc1ccc(N2CCC(c3cc(Cl)c(Cl)c(Cl)c3)(C(F)(F)F)C2O)nc1C(F)(F)F)C(=O)C1CC1 (stereo not shown) [A3-424]
insecticidal activity [3, 5]: 100%
insecticidal activity (pesticidal ratio) [1, 5]: 100%

O=C(CC1CC1)NCc1ccc(N2CCC(c3cccc(C(F)(F)F)c3)(C(F)(F)F)C2O)nc1C(F)(F)F (racemic) [A3-226]
insecticidal activity [3, 5]: 100%
insecticidal activity [3, 6]: 100%
acaricidal activity [2, 5]: 100%
acaricidal activity [2, 6]: 100%

N#Cc1ccc(N2CCC(c3cc(Cl)c(F)c(Cl)c3F)(C(F)(F)F)C2O)cc1C(F)(F)F (stereo not shown) [a1-48, 4-[3-(3,5-dichloro-2,4-difluorophenyl)-2-hydroxy-3-(trifluoromethyl)-pyrrolidin-1-yl]-2-(trifluoromethyl)benzonitrile]
pest or weed control at 20 ppm [3, 6]: 100%

O=C(CC1CC1)NCc1ccc(N2CCC(c3cc(Cl)cc(Cl)c3)(C(F)(F)F)C2O)cc1C(F)(F)F (stereo not shown) [A1-39]
insecticidal activity [3, 6]: 100%
acaricidal activity [2, 6]: 100%

COCCC(=O)NCc1ccc(N2CCC(c3cc(C(F)(F)F)cc(C(F)(F)F)c3)(C(F)(F)F)C2O)cc1C (mixture of isomers) [A1-190]
insecticidal activity [3, 6]: 100%
acaricidal activity [2, 6]: 100%

O=C(NCc1cc(F)c(N2CCC(c3cc(Cl)c(Cl)c(Cl)c3)(C(F)(F)F)C2O)cc1F)C1CC1 (stereo not shown) [A1-457]
insecticidal activity [3, 5]: 100%
insecticidal activity (pesticidal ratio) [1, 5]: 100%

CN(C)CC(=O)NCc1cnc(N2CCC(c3cc(Cl)cc(Cl)c3)(C(F)(F)F)C2O)nc1C(F)(F)F (stereo not shown) [A4-201]
insecticidal activity (pesticidal ratio) [1, 4]: 100%

O=C(NCc1ccc(N2CCC(c3cc(Br)cc(Br)c3)(C(F)(F)F)C2O)nc1C(F)(F)F)C1CC1 (mixture of isomers) [A3-181]
insecticidal activity [3, 6]: 100%
insecticidal activity (pesticidal ratio) [1, 6]: 100%

CC(C)(C)OC(=O)NCc1ccc(N2CCC(c3cc(C(F)(F)F)cc(C(F)(F)F)c3)(C(F)(F)F)C2O)cc1Cl (stereo not shown) [A1-69, tert-butyl (4-{3-[3,5-bis(trifluoromethyl)phenyl]-2-hydroxy-3-(trifluoro-methyl)pyrrolidin-1-yl}-2-chlorobenzyl)carbamate]
pest or weed control at 20 ppm [3, 6]: 100%

CC(C)(C)OC(=O)NCc1ccc(N2CCC(c3cc(C(F)(F)F)cc(C(F)(F)F)c3)(C(F)(F)F)C2O)cc1C(F)(F)F (mixture of isomers) [A1-72]
insecticidal activity [3, 4]: 100%
insecticidal activity (pesticidal ratio) [1, 4]: 100%

O=C(NCc1cnc(N2CCC(c3cc(Cl)cc(Cl)c3)(C(F)(F)F)C2O)nc1C(F)(F)F)C1CCCN1 (stereo not shown) [A4-202]
insecticidal activity (pesticidal ratio) [1, 4]: 100%

CCC(=O)NCc1ccc(N2CCC(c3cc(Cl)cc(Cl)c3)(C(F)(F)F)C2O)cc1 (stereo not shown) [A1-373]
insecticidal activity [3, 6]: 100%
insecticidal activity (pesticidal ratio) [1, 6]: 100%

CC(=O)NCc1cc(F)c(N2CCC(c3cc(Cl)c(Cl)c(Cl)c3)(C(F)(F)F)C2O)cc1F (stereo not shown) [A1-453]
insecticidal activity (pesticidal ratio) [1, 5]: 80%

CCC(=O)NCc1ccc(N2CCC(c3cc(Cl)c(F)c(Cl)c3F)(C(F)(F)F)C2O)nc1Br (stereo not shown) [A3-323]
insecticidal activity [3, 5]: 100%
insecticidal activity (pesticidal ratio) [1, 5]: 100%

O=C(NCc1cc(F)c(N2CCC(c3cc(Cl)c(Cl)c(Cl)c3)(C(F)(F)F)C2O)cc1Cl)C1CC1 (stereo not shown) [A1-481]
insecticidal activity [3, 5]: 100%
insecticidal activity (pesticidal ratio) [1, 5]: 100%

O=C(NCc1cnc(N2CCC(c3cc(C(F)(F)F)cc(C(F)(F)F)c3)(C(F)(F)F)C2O)nc1Cl)C1CC1 (stereo not shown) [A4-252]
insecticidal activity [3, 5]: 100%
insecticidal activity (pesticidal ratio) [1, 5]: 100%

CCC(=O)NCc1ccc(N2CCC(c3cc(Cl)cc(Cl)c3)(C(F)(F)F)C2O)cc1CC (mixture of isomers) [A1-85]
acaricidal activity [2, 6]: 90%

CC(=O)NCc1cc(F)c(N2CCC(c3cc(C(F)(F)F)cc(C(F)(F)F)c3)(C(F)(F)F)C2O)nc1Cl (stereo not shown) [A3-377]
insecticidal activity [3, 5]: 100%
insecticidal activity (pesticidal ratio) [1, 5]: 100%

CCC(=O)NCc1ccc(N2CC(c3cc(C(F)(F)F)cc(C(F)(F)F)c3)(C(F)(F)F)CC2O)nc1C(F)(F)F (stereo not shown) [A′3-24, N-{[6-{4-[3,5-bis(trifluoromethyl)phenyl]-2-hydroxy-4-(trifluoromethyl)pyrrolidin-1-yl}-2-(trifluoromethyl)pyridin-3-yl]methyl}propanamide]
pest or weed control at 20 ppm [3, 6]: 100%
pest or weed control at 20 ppm ([1]; Spodoptera litura, 168 h, active compound concentration 20 ppm, read-out: insecticidal activity (pesticidal ratio)): 100%

CCC(=O)NCc1ccc(N2CC(c3cc(Cl)cc(Cl)c3)(C(F)(F)F)CC2=O)nc1C(F)(F)F (stereo not shown) [C3-2]
insecticidal activity (pesticidal ratio) [1, 6]: 100%

CC(=O)NCc1ccc(N2CCC(c3cccc(C(F)(F)F)c3)(C(F)(F)F)C2O)nc1C(F)(F)F (racemic) [A3-221]
insecticidal activity [3, 6]: 100%

Cc1nc(N2CCC(c3cc(C(F)(F)F)cc(C(F)(F)F)c3)(C(F)(F)F)C2O)ccc1CNC(=O)C1CC1 (stereo not shown) [A3-126]
insecticidal activity [3, 6]: 100%
insecticidal activity (pesticidal ratio) [1, 6]: 100%

CCC(=O)NCc1ccc(N2CCC(c3cc(C(F)(F)F)cc(C(F)(F)F)c3)(C(F)(F)F)C2O)nc1Br (stereo not shown) [A3-156]
insecticidal activity [3, 6]: 100%
insecticidal activity (pesticidal ratio) [1, 6]: 100%

CC(=O)NCc1ccc(N2CCC(c3cc(C(F)(F)F)cc(C(F)(F)F)c3)(C(F)(F)F)C2O)cc1C (mixture of isomers) [A1-183]
insecticidal activity [3, 6]: 100%
insecticidal activity (pesticidal ratio) [1, 6]: 100%

CC(=O)NCc1ccc(N2CCC(c3cc(Cl)cc(Cl)c3)(C(F)(F)F)C2O)cc1C(F)(F)F (stereo not shown) [A1-34]
insecticidal activity [3, 6]: 100%
insecticidal activity (pesticidal ratio) [1, 6]: 100%

CCC(=O)NCc1ccc(N2CC(c3cc(Cl)c(Cl)c(Cl)c3)(C(F)(F)F)CC2=O)nc1C (stereo not shown) [C1-74]
insecticidal activity (pesticidal ratio) [1, 6]: 100%

CC(C)(C)OC(=O)NCc1ccc(N2CCC(c3cc(Cl)c(Cl)c(Cl)c3)(C(F)(F)F)C2O)cc1Cl (mixture of isomers) [A1-68]
acaricidal activity [2, 4]: 100%

CCC(=O)NCc1ccc(N2CCC(c3cc(C(F)(F)F)cc(C(F)(F)F)c3)(C(F)(F)F)C2O)cc1 (stereo not shown) [A1-395]
insecticidal activity [3, 6]: 100%
insecticidal activity (pesticidal ratio) [1, 6]: 100%

CCCC(=O)NCc1ccc(N2CCC(c3cc(Cl)c(Cl)c(Cl)c3)(C(F)(F)F)C2O)cc1C(F)(F)F (stereo not shown) [a1-47]
insecticidal activity (pesticidal ratio) [1, 6]: 100%

N#CCC(=O)NCc1cnc(N2CCC(c3cc(Cl)cc(Cl)c3)(C(F)(F)F)C2O)nc1C(F)(F)F (stereo not shown) [A4-435]
acaricidal activity [2, 6]: 100%

O=C(NCc1cc(F)c(N2CCC(c3cc(Cl)c(Cl)c(Cl)c3)(C(F)(F)F)C2O)nc1Cl)C1CC1 (stereo not shown) [A3-370]
insecticidal activity [3, 5]: 100%
insecticidal activity (pesticidal ratio) [1, 5]: 100%

O=C(NCc1ccc(N2CC(c3cc(Cl)cc(Cl)c3)(C(F)(F)F)CC2=O)nc1C(F)(F)F)C1CC1 (stereo not shown) [C3-5]
insecticidal activity (pesticidal ratio) [1, 6]: 100%

CC(=O)NCc1ccc(N2CCC(c3cc(C(F)(F)F)cc(C(F)(F)F)c3)(C(F)(F)F)C2O)nc1C (stereo not shown) [A3-122]
insecticidal activity (pesticidal ratio) [1, 5]: 100%
insecticidal activity (pesticidal ratio) [1, 6]: 100%

CCC(=O)NCc1ccc(N2CCC(c3cc(C(F)(F)F)cc(C(F)(F)F)c3)(C(F)(F)F)C2=O)cc1 (stereo not shown) [B1-96]
insecticidal activity [3, 6]: 100%
insecticidal activity (pesticidal ratio) [1, 6]: 100%

Cc1c(CNC(=O)C2CC2)ccc(N2CCC(c3cc(Cl)c(Cl)c(Cl)c3)(C(F)(F)F)C2O)c1F (stereo not shown) [A1-493]
insecticidal activity [3, 5]: 100%
insecticidal activity (pesticidal ratio) [1, 5]: 100%

CCC(=O)NCc1ccc(N2CCC(c3cc(Cl)cc(Cl)c3)(C(F)(F)F)C2O)nc1C(F)(F)F (stereo not shown) [A3-2]
insecticidal activity [3, 6]: 100%
insecticidal activity (pesticidal ratio) [1, 6]: 100%
